The source of these data is US9371362B2, “Prostate specific antigen agents and methods of using same for prostate cancer imaging” (VisEn Medical, Inc., priority 2012, dated 2016).

Non-standard residues stand in square brackets, D forms with d. Y‑mPEG ~40 kDa = Y-mPEG amine, ~40 kDa, coupled at C-terminal carboxyl; Hyp = O=C(O)[C@@H]1C[C@@H](O)CN1; Chg = N[C@H](C(=O)O)C1CCCCC1

Assay [1] relates to LNCaP tumors (PSA+) and PC3 (PSA−) tumors. The assay is described as follows: In vivo specificity imaging, LNCaP (PSA+) versus PC3 (PSA−) tumors, FMT2500. As to conditions: male Nu/Nu mice, 2 nmoles intravenously, imaged 24 hours later. As for the experimental part: FIG. 2B is a histogram comparing fluorescence between prostate cancer expressing (PSA positive) and control (PSA negative) mice injected with the prostate specific antigen activatable agent (compound A10) and imaged tomographically.
Imaging studies were performed in LNCaP tumors (PSA+) and PC3 (PSA−) tumors tumor-bearing male Nu/Nu mice. The mice were injected intravenously with 2 nmoles of compound A10 and imaged 24 hours later on the FMT2500 (PerkinElmer Inc., Waltham, Mass.). Tumor fluorescence from positive and control mice was quantified and plotted.

The test system of assay [2] is human prostate PSA+ LNCaP tumor. Briefly: In vivo imaging of prostate cancer, FMT2500 reflectance and tomography, IVIS Spectrum. As to conditions: male Nu/Nu mice, 2 nmoles intravenously, imaged 6 hours later. As to the method: FIG. 2A depicts epi-fluorescent reflectance and tomographic images for sites of active PSA detected in prostate cancer expressing mice six hours post-injection using a prostate specific antigen activatable agent (compound A10).
As depicted in FIG. 2A, imaging studies were performed in human prostate PSA^+ LNCaP tumor-bearing male Nu/Nu mice. The mice were injected intravenously with 2 nmoles of test agent (compound A10) and were imaged 6 hours later on the FMT2500 (PerkinElmer Inc., Waltham, Mass.) (FMT 2D for epifluorescence, FMT 3D for tomography) in reflectance and tomographic modes, and on the IVIS Spectrum (PerkinElmer Inc., Waltham, Mass.).

Assay [3] concerns the target complexed PSA (Homo sapiens, UniProt P07288). Briefly: In vitro activation of agent by complexed (inactive) PSA, kinetic fluorescence reading. Type of assay: biochemical. As to conditions: 0.5 μM agent, optimized buffer pH 7.5. As for the experimental part: (§1) Data in FIG. 1 depict activation of the prostate specific antigen activatable agents (compound A10).
(§2) Kinetic fluorescence readings were performed in a Gemini fluorescence plate reader at different times after adding the enzyme.
(§3) In this experiment, fluorescence is only associated with the test agents (compound A10) in the prescence of active PSA described herein.

For assay [4], the target named is active PSA (Homo sapiens, UniProt P07288). Briefly: In vitro activation (cleavage) of agent by enzymatically active PSA, kinetic fluorescence reading. The class given is biochemical. As to conditions: 0.5 μM agent, 0.1 μM activated enzyme, TCNB buffer pH 7.5. As to the method:
as §1, §2, §3

Chain of active PSA (P07288 25-261): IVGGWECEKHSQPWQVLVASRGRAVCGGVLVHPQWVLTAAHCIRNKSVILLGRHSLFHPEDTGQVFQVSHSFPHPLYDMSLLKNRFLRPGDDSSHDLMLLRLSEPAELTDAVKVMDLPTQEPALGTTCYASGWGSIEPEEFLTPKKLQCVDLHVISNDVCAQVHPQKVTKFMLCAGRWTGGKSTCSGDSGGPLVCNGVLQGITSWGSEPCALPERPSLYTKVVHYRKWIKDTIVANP
Chain of complexed PSA (P07288 25-261): as above
Chain of complexed PSA (P01011 24-423 partner): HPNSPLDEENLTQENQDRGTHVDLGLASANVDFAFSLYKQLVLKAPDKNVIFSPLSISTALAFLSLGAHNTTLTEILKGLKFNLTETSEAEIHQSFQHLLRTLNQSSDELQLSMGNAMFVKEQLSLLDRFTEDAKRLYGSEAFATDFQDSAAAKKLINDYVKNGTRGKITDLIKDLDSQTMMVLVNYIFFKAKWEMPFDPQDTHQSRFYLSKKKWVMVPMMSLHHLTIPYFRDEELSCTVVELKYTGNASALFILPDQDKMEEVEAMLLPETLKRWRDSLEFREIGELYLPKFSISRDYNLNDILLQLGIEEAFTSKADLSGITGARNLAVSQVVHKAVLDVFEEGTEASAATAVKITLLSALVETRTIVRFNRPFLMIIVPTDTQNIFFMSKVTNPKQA

For the substance “A10 (Ac-K[Hyp]SS[Chg]QSSK-{Y‑mPEG ~40 kDa}; also: conjugated with NHS ester of fluorophore F8, sites not given here) [Compound A10]”, the “specificity of tumor fluorescence for PSA positive over PSA negative tumors” value in assay [1] is “specificity the prostate specific antigen activatable agents have for tumors containing enzymatically active PSA over PSA negative tumors in vivo”. Besides, the “detection of sites of enzymatically active PSA in vivo” value in assay [2] was “Sites of active PSA are detected in the same locations for both reflectance and tomographic imaging”. In assay [3], the “activation (fluorescence) in the presence of complexed PSA” value was “not complexed PSA”. Also, the “activation (fluorescence) in the presence of active PSA” value in assay [4] is recorded as “activated in the presence of active PSA”.
